# “Also recorded” adds a separate entry of the source. Structures can show the parent of a compound that is named as a salt.
# Legend:
# Assay type in all cases: cell-based, Staphylococcus aureus
# [1] = test system: vraSR transcription (Pvra::lux); details: compound 10 μM + oxacillin 2 μg/mL; for RL avg (relative luminescence): ratio of LU to oxacillin alone, four runs
# Summary of the method: (§1)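 Secondary screen: compound at 10 μM plus oxacillin 2 μg/mL, four biological replicates, luminescence read every 15 minutes. RG and RL are OD600 or max LU with compound plus oxacillin over pooled same-plate oxacillin controls; RL <0.8 repressor, >1.2 stimulator, 0.80-1.2 neutral.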
# [2] = test system: MRSA strain USA300 Pvra-lux; details: compound 10 μM + oxacillin 2 μg/mL; for RG avg (relative growth): ratio of OD600 to oxacillin alone, four runs
# Summary of the method: as §1
# [3] = test system: vraR transcription; assay: Tertiary screen: qRT-PCR of vraR in strain 923; details: for Effect on vraSR Transcription: Compound alone: compound 10 μM, no oxacillin; for Effect on vraSR Transcription: With oxacillin: compound 10 μM + oxacillin 2 μg/mL; for classification of lux screen result against qRT-PCR (true/false repressor or stimulator): in the presence of oxacillin
# [4] = test system: MRSA strain USA300-isolate 923; assay: Checkerboard MIC testing of compounds with oxacillin
# [5] = test system: VISA 2283; assay: microbe, parasite or virus in culture; details: vancomycin alone; for MIC Van: VISA 2283
# Description: (§2) As shown in the analysis of the checkerboard assays (Table 6), gossypol fully potentiated vancomycin (FIC i<0.5) in hVISA, VISA, VRS2 and VRS1. […] Clomiphene partially potentiated vancomycin in hVISA, VISA, and VRS1 and it fully potentiated in strain VRS2.
# [6] = test system: hVISA 2275; assay: microbe, parasite or virus in culture; details: Staphylococcus aureus, read-out: MIC Van
# Description: as §2
# [7] = test system: VRS2; assay: microbe, parasite or virus in culture; details: Staphylococcus aureus, read-out: MIC Van
# Description: as §2
# [8] = test system: VRS1; assay: microbe, parasite or virus in culture; details: Staphylococcus aureus, read-out: MIC Van
# Description: as §2
compound,measurement,setting,value
CC(=O)OCC1=C(C(=O)O)N2C(=O)[C@@H](NC(=O)Cc3cccs3)[C@H]2SC1 [Cephalothin sodium salt],Effect on vraSR transcription,[1],neutral (“vraSR neutral” (mean RL between 0.80-1.2))
same,RL avg (relative luminescence),[1],0.36
same,OD600 category,[2],inhibited (of <0.8 were classified as oxacillin synergists or potentiators)
same,RG avg (relative growth),[2],0.45
same,Effect on vraSR Transcription: Compound alone,[3]; qRT-PCR of vraR,stimulate
CC/C(=C(/CC)c1ccc(O)cc1)c1ccc(O)cc1 [Diethylstilbestrol],Effect on vraSR transcription,[1],repress (“vraSR repressors” (mean RL of <0.8))
same,RL avg (relative luminescence),[1],0.26
same,OD600 category,[2],inhibited (of <0.8 were classified as oxacillin synergists or potentiators)
same,RG avg (relative growth),[2],0.41
same,Effect on vraSR Transcription: With oxacillin,[3]; qRT-PCR of vraR,super-stimulate
same,Effect on vraSR Transcription: With oxacillin,"[3]; qRT-PCR of vraR, listed as diethylstilbesterol",enhanced oxacillin's effect on vraR transcription
same,Effect on vraSR Transcription: Compound alone,[3]; qRT-PCR of vraR,None
O=C1NCN(c2ccccc2)C12CCN(CCCC(c1ccc(F)cc1)c1ccc(F)cc1)CC2 [Fluspirilen],Effect on vraSR transcription,[1],"stimulate (“vraSR stimulators”, (mean RL>1.2))"
same,RL avg (relative luminescence),[1],0.28
same,OD600 category,[2],inhibited (of <0.8 were classified as oxacillin synergists or potentiators)
same,RG avg (relative growth),[2],0.47
same,Effect on vraSR transcription (summary),"[3]; qRT-PCR of vraR, alone and with oxacillin",No effect
same,Effect on vraSR Transcription: With oxacillin,[3]; qRT-PCR of vraR,vraR neutral
same,Effect on vraSR Transcription: With oxacillin,"[3]; qRT-PCR of vraR, listed as fluspirilene",none
same,Effect on vraSR Transcription: Compound alone,[3]; qRT-PCR of vraR,none
C#C[C@]1(O)CC[C@H]2[C@@H]3CCC4=CCCC[C@@H]4[C@H]3CC[C@@]21C [Lynestrenol],Effect on vraSR transcription,[1],repress (“vraSR repressors” (mean RL of <0.8))
same,RL avg (relative luminescence),[1],0.26
same,OD600 category,[2],inhibited (of <0.8 were classified as oxacillin synergists or potentiators)
same,RG avg (relative growth),[2],0.47
same,Effect on vraSR Transcription: Compound alone,[3]; qRT-PCR of vraR,stimulate
"CC1=CC(=O)c2ccccc2C1=O [Menadione, 2-Methylnaphthalene-1,4-dione]",oxacillin MIC,"[4]; strain 923, Men 10.8 μM",16 µg/mL
same,oxacillin MIC,"[4]; strain 923, Men 12.3 μM",16 µg/mL
same,oxacillin MIC,"[4]; strain 923, Men 14.1 μM",16 µg/mL
same,oxacillin MIC,"[4]; strain 923, Men 16.1 μM",2 µg/mL
same,oxacillin MIC,"[4]; strain 923, Men 18.4 μM",2 µg/mL
same,oxacillin MIC,"[4]; strain 923, Men 21 μM",2 µg/mL
same,oxacillin MIC,"[4]; strain 923, Men 24 μM",2 µg/mL
same,FICi (FIC index) with oxacillin,"[4]; strain 923, in at least one combination (well)",> 0.5
same,MIC of oxacillin,"[4]; strain 923, menadione at 16 μM",2 µg/mL
same,Effect on vraSR transcription,[1],repress (“vraSR repressors” (mean RL of <0.8))
same,RL avg (relative luminescence),[1],0.47
same,OD600 category,[2],inhibited (of <0.8 were classified as oxacillin synergists or potentiators)
same,RG avg (relative growth),[2],0.69
same,classification of lux screen result against qRT-PCR (true/false repressor or stimulator),[3],true vraSR expression repressors
same,Effect on vraSR Transcription: With oxacillin,[3]; qRT-PCR of vraR,vraR inhibitors; also recorded: repress
"CCn1cc(C(=O)O)c(=O)c2cc(F)c(N3CCNCC3)cc21 [Norfloxacin, 1-ethyl-6-fluoro-4-oxo-7-piperazin-1-yl-1H-quinoline-3-carboxylic acid]",change of the MIC of oxacillin with compound concentration,"[4]; strain 923, checkerboard",dose dependent decrease
same,Effect on vraSR transcription,[1],repress (“vraSR repressors” (mean RL of <0.8))
same,RL avg (relative luminescence),[1],0.33
same,OD600 category,[2],inhibited (of <0.8 were classified as oxacillin synergists or potentiators)
same,RG avg (relative growth),[2],0.40
same,classification of lux screen result against qRT-PCR (true/false repressor or stimulator),[3],true vraSR expression repressors
same,Effect on vraSR Transcription: With oxacillin,[3]; qRT-PCR of vraR,repress
"CO[C@H]1C[C@H](O[C@H]2[C@H](C)[C@@H](O[C@@H]3O[C@H](C)C[C@H](N(C)C)[C@H]3O)[C@@H](C)C[C@@]3(CO3)C(=O)[C@H](C)[C@@H](O)[C@@H](C)[C@@H](C)OC(=O)[C@@H]2C)O[C@@H](C)[C@@H]1O [Oleandomycin phosphate, (3R,5R,6S,7R,8R,11R,12S,13R,14S,15S)-14-((2S,3R,4S,6R)-4-(dimethylamino)-3-hydroxy-6-methyltetrahydro-2H-pyran-2-yloxy)-6-hydroxy-12-((2R,4S,5S,6S)-5-hydroxy-4-methoxy-6-methyltetrahydro-2H-pyran-2-yloxy)-5,7,8,11,13,15-hexamethyl-1,9-dioxaspiro[2.13]hexadecane-4,10-dione]",Effect on vraSR transcription,[1],repress (“vraSR repressors” (mean RL of <0.8))
same,RL avg (relative luminescence),[1],0.20
same,OD600 category,[2],inhibited (of <0.8 were classified as oxacillin synergists or potentiators)
same,RG avg (relative growth),[2],0.19
same,classification of lux screen result against qRT-PCR (true/false repressor or stimulator),[3],true vraSR expression repressors
same,Effect on vraSR Transcription: With oxacillin,[3]; qRT-PCR of vraR,repress
C[C@H]1[C@H](C)CC[C@]2(C(=O)O)CC[C@]3(C)C(=CC[C@@H]4[C@@]5(C)CC[C@H](O)C(C)(C)[C@@H]5CC[C@]43C)[C@H]12 [Ursolic acid],Effect on vraSR transcription,[1],repress (“vraSR repressors” (mean RL of <0.8))
same,RL avg (relative luminescence),[1],0.71
same,OD600 category,[2],inhibited (of <0.8 were classified as oxacillin synergists or potentiators)
same,RG avg (relative growth),[2],0.77
same,Effect on vraSR Transcription: Compound alone,[3]; qRT-PCR of vraR,stimulate
CN[C@H](CC(C)C)C(=O)N[C@H]1C(=O)N[C@@H](CC(N)=O)C(=O)N[C@H]2C(=O)N[C@H]3C(=O)N[C@H](C(=O)N[C@H](C(=O)O)c4cc(O)cc(O)c4-c4cc3ccc4O)[C@H](O)c3ccc(c(Cl)c3)Oc3cc2cc(c3O[C@@H]2O[C@H](CO)[C@@H](O)[C@H](O)[C@H]2O[C@H]2C[C@](C)(N)[C@H](O)[C@H](C)O2)Oc2ccc(cc2Cl)[C@H]1O [vancomycin],MIC,"[5]; Staphylococcus aureus, VISA, read-out: MIC Van, VISA 2283",16 µg/mL
same,MIC Van,[5],8 µg/mL
same,MIC Van,[5]; listed as Van,8 µg/mL
same,MIC,[6],4 µg/mL
same,MIC,[7],16 µg/mL
same,MIC,[8],1020 µg/mL
Spiramycin,Effect on vraSR transcription,[1],repress (“vraSR repressors” (mean RL of <0.8))
same,RL avg (relative luminescence),[1],0.31
same,OD600 category,[2],inhibited (of <0.8 were classified as oxacillin synergists or potentiators)
same,RG avg (relative growth),[2],0.43
same,Effect on vraSR Transcription: With oxacillin,[3]; qRT-PCR of vraR,super-stimulate
same,Effect on vraSR Transcription: Compound alone,[3]; qRT-PCR of vraR,None
